The text below walks through data of patent US11807608B2, “Polymerizable compounds with one or more surfactant-like properties” (University of Manitoba, priority 2017, dated 2023).

Each structure is given as a SMILES string.

The nature of the series: Surface tension by Wilhelmy plate (KRUSS K100 Tensiometer, ASTM D1331-14). It counts as physicochemical. From the text: A KRUSS K100 Tensiometer was used to determine the surface tension of a sample of the compounds in liquid water at different concentrations. The concentrations tested were 0.5%, 1.0%, 3.0%, 5.0% and 10%. A platinum plate with dimensions of about 19.9 mm×about 0.2 mm×about 10 mm (width, thickness and height respectfully) was attached to a sensitive mass balance. The sample was raised to the fixed platinum plate at a rate of 10 mm/min with a detection sensitivity of 0.005 g until the liquid sample reached the bottom of the plate. The plate was then immersed in the liquid sample at a depth of 2 mm for 60-150 seconds and any change in mass was recorded by the equipment as a function of time. Force was determined using the equation f=ma.
The surface tension (γ) of each liquid sample was calculated from the force measurement (f) using the equation outlined in Method C: Surface Tension by Wilhelmy plate, ASTM D1331-14.
[formula] where (l) is the length and (t) is the thickness of the plate. The contact angle was assumed to be 0. The test results describe a trend and general indication of the surfactant properties of each compound tested.

[1] abbreviates: 0.5% in water, 150 second measurement.
Setting [2] is: 1.0% in water, 150 second measurement.
The mark [3] stands for this setting: 3.0% in water, 150 second measurement.
Where [4] appears, read: 5.0% in water, 150 second measurement.
The mark [5] stands for this setting: 10.0% in water, 150 second measurement.

With `C=C(C)C(=O)NCCC[N+](C)(C)CCCCCCCCCC[N+](C)(C)C1CC(C)(C)NC(C)(C)C1.[Br-].[Br-]` [Formula 5, PIP-C10-C3-methyl, methyl, acrylamide], the “Surface Tension Mean” value (0.5% in water, 60 second measurement) is given as 36.93 mN/m; the “Surface Tension Mean” value (1.0% in water, 60 second measurement) was found to be 32.55 mN/m; the “Surface Tension Mean” value (3.0% in water, 60 second measurement) stood at 31.23 mN/m; the “Surface Tension Mean” value (5.0% in water, 60 second measurement) is on record as 30.28 mN/m; the “Surface Tension Mean” value (10.0% in water, 60 second measurement) amounted to 29.57 mN/m.
With `C=C(C)C(=O)OCC[N+](C)(C)CCCCCCCCCC[N+](C)(C)C1CC(C)(C)NC(C)(C)C1.[Br-].[Br-]` [Formula 6], the “Surface Tension Mean” value is, setting by setting: under setting [1], 47.18 mN/m; under setting [2], 39.51 mN/m; under setting [3], 36.93 mN/m; under setting [4], 35.50 mN/m; under setting [5], 36.39 mN/m.
For `C=C(C)C(=O)OCCCCCCCCCCC[N+](C)(C)C1CC(C)(C)NC(C)(C)C1.[Br-]` [Formula 9] the same measures were 37.16 mN/m, 36.19 mN/m, 35.80 mN/m, 35.84 mN/m and 30.44 mN/m.
